{
  "source": "patent US10399971B2",
  "about": "“Compound for treating or preventing hyperuricemia or gout” (JIANGSU ATOM BIOSCIENCE AND PHARMACEUTICAL CO., LTD., priority 2015, dated 2019)",
  "key": {"hURAT1": {"biological_target": "T1, hURAT1 (Homo sapiens, UniProt Q96S37)", "T1 sequence (Q96S37 1-553)": "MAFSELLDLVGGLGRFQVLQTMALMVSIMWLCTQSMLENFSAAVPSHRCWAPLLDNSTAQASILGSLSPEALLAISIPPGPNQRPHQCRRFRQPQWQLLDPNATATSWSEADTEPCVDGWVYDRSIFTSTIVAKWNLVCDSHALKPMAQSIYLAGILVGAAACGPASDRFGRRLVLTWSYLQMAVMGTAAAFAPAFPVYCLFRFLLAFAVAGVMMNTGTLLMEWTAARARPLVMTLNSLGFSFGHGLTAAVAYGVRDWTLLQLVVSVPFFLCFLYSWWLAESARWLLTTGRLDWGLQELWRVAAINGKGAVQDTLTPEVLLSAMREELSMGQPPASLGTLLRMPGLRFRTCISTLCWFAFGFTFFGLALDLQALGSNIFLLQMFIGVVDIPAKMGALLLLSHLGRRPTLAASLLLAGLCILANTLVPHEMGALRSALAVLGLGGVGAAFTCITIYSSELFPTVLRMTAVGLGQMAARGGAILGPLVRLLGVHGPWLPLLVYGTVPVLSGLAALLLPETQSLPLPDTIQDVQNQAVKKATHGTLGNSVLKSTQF", "assay": "Inhibition assay of uric acid transport in HEK293-hURAT1 transfection cell line", "assay_type": "cell-based", "settings": "read-out: Inhibitory rates of uric acid transport, ±SD (%)", "protocol": "2.1 Construction of a HEK293 stable cell line with high expression of hURAT1: The plasmid pCMV6-hURAT1 was transfected into HEK293 cells, then the stable strain was obtained by the G418 (final concentration 500 μg/mL) resistance screening, which is the high expression of hURAT1 transporter membrane protein.\n2.2 To a coated 24-well plate was added 200 μL of 0.1 mg/mL poly-lysine per well and the plate was left overnight. Poly-lysine was removed from wells. The wells were cleaned thoroughly with aseptic water and dried for use.\n2.3 To the above coated 24 well plate was added HEK293-hURAT1 stable cells (2×10^5 cells per well). The cells was cultured at 37° C. under 5% CO2 for 3 days.\nThe solution was fully mixed to give HBSS buffer (pH value: 7.4). The buffer was stored at −20° C.\n2.5 The HBSS buffer was warmed to 37° C. in a water bath. Washed cells with HBSS twice, added 160 μL of HBSS and 20 μL test compound per well. The final concentration of tested compound per well is 500 nM. The blank control well contains only 180 μL of HBSS without tested compound. The plate was placed at room temperature for 30 min.\n2.6 To each well was added 20 μL of 50 μM ^14C-Uric acid. The plate was placed at room temperature for 20 min.\n2.7 The solution in each well was removed and the cells in each well were washed with pre-cooled HBSS buffer. To each well was added 0.2 M NaOH to dissolve the cells. The solution containing cell fragments was collected and the right amount of scintillation liquid was added.\nThe formula for calculating the inhibitory rate of uric acid transport for compounds was shown as below: […]"}, "[1]": {"system": "human normal liver cell line L-02", "assay": "Cytotoxicity test on human normal liver cell line L-02 (Alamar Blue)", "assay_type": "cell-based", "settings": "L02, L-02 cells, 120 h incubation, cell viability, read-out: half inhibitory concentration (IC50) against L-02", "protocol": "(§1) 2.1 The normal liver cell lines L-02 and WRL-68 were cultured with DMEM culture medium (containing 10% of fetal bovine serum, 100 U/mL of penicillin and 0.1 mg/mL of streptomycin) in an incubator under 5% CO2 at 37° C. until the cell density was about 90%, respectively.\n(§2) 2.3 Tested compounds and benzbromarone at different concentration gradients were prepared by using the DMEM culture medium and added into wells at 100 μL/well as compounds wells. The DMEM culture medium was added into wells at 100 μL/well without tested compound as negative control wells.\n(§3) This 10× Alamar Blue solution was diluted into 1× Alamar Blue solution with phenol red free DMEM culture medium before use.\n(§4) 2.5 The cells were washed with PBS (0.1 M, pH=7.4) twice. The Alamar Blue solution was added into wells at 100 μL/well. 100 μL of Alamar Blue solution was added into wells without cells to serve as blank control wells. The 96-well plate was placed in an incubator under 5% CO2 at 37° C. for 3 h. Each concentration of compound was repeated three times during the test.\n(§5) The fluorescence value of the cells containing compound is the F(test compound); the fluorescence value of the cells without compound as blank control is the F(blank control); the fluorescent value of the cells from negative control group is F(negative control). The average value and standard deviation of cell viability of three repeated concentrations was calculated by the following formula: […]\n(§6) 2.7 The half inhibitory concentration (IC50) of the compound for the cells L-02 and WRL-68 was obtained from the cell viability by Prism Graph software."}, "[2]": {"system": "human normal liver cell line WRL-68", "assay": "Cytotoxicity test on human normal liver cell line WRL-68 (Alamar Blue)", "assay_type": "cell-based", "settings": "WRL68, WRL-68 cells, 120 h incubation, cell viability, read-out: half inhibitory concentration (IC50) against WRL-68", "protocol": "as §1, §2, §3, §4, §5, §6"}, "hyperuricemia mice": {"system": "hyperuricemia mice", "assay": "Uric acid excretion test in hyperuricemia mice", "assay_type": "in vivo, Kunming mice", "settings": "15 mg/kg oral", "protocol": "Species: Kingming mice (Clean Level); body weights: 25 to 30 g; ages: 4 to 5 weeks; sex: male. These mice were purchased from Shanghai SLAC Laboratory Animal Co., Ltd. Certificate No.: SCXK (HU) 2012-2002. Animal quality certificate number: 2015000522173.\nA certain amount of adenine and yeast extract powder was weighted and a certain amount of double distilled water was added. The mixture was stirred at about 60° C. for 40 min to give a suspension, which the concentration of yeast extract is 0.6 g/mL and the concentration of adenine is 12 mg/mL.\nA suspension of 20 mg/mL potassium oxonate was prepared by mixing a certain amount of potassium oxonate with 0.5% CMC-Na solution before use.\nMale Kunming mice were randomly divided into four groups: blank control group, model group, compound 74 group, and benzbromarone group. Each group has six mice. All mice fasted 2 to 3 h before use. The model group, benzbromarone group, and compound 74 group were orally given a suspension of yeast extract and adenine prepared above to reach the final dosage of 10 g/kg (body weight) of yeast extract and 200 mg/kg (body weight) of adenine, respectively. The blank control group was only given same volume of normal saline orally. After 2.5 h, all mice in compound 74 group and benzbromarone group were given 10 mL/kg of suspension of compound 74 (1.5 mg/mL) and 10 mL/kg of suspension of benzbromarone (1.5 mg/mL), respectively. The blank control group and model group were orally given same volume of 0.5% CMC-Na solution. All animals were treated in the same way for seven days by using administration methods described above. On the last day, after administration of a suspension of yeast extract and adenine for the model group, compound 74 group, and benzbromarone group, all mice in these three groups were given 12.5 mL/kg of potassium oxonate (20 mg/mL) by i.p. The blank control was only given same volume of 0.5% CMC-Na solution by i.p. After 30 min, compound 74 and benzbromarone were administrated orally to the mice at same dosages as above in compound 74 group and benzbromarone group, respectively. The blank control group and model group were orally given same volume of 0.5% CMC-Na solution.\nCollection of urine samples: All mice were placed in metabolic cages with normal diet individually after giving test compounds on the last day. 24 h urine was collected and the urine volume was measured. The urine was centrifugated at 3000 rpm for 20 min and the supernatant was collected.\nDetection of the concentration of uric acid of mice urine samples: uric acid concentration in samples was detected by using uric acid assay kit (phosphotungstic acid method) followed the procedures described in the instruction."}, "in vivo": {"assay": "in vivo", "settings": "both, SD, rat, po", "source_text": "(§7) Rats were randomly divided into group A1, group B1 and blank control group. Each group has 10 of rats with half male and half female."}, "[3]": {"assay": "Acute toxicity of single oral dose in SD rats", "source_text": "as §7"}},
  "data": [
    {"smiles": "CCc1oc2ccccc2c1C(=O)c1cc(Br)c(O)c(Br)c1", "note": "[BBR, (3,5-dibromo-4-hydroxyphenyl)(2-ethyl-benzofuran-3-yl)methanone, reference compound]", "values": [
      {"measurement": "inhibition at 0.5 µM", "setting": "hURAT1", "value": "55.6 ± 1.42", "unit": "%"},
      {"measurement": "IC50", "setting": "[1]", "value": 40.2, "unit": "µM"},
      {"measurement": "IC50", "setting": "[2]", "value": 45.5, "unit": "µM"},
      {"measurement": "uric acid excretion increased compared with the model group", "setting": "hyperuricemia mice; increase over model group", "value": "about 25.35%"},
      {"measurement": "Changes of uric acid excretion (compared with model group, %)", "setting": "hyperuricemia mice; model group set to 100%", "value": 125.35, "unit": "%"},
      {"measurement": "Uric acid in urine for 24 h, ±SD", "setting": "hyperuricemia mice; seven days, 6 mice", "value": "13.40 ± 1.59", "unit": "mmol"},
      {"measurement": "MTD at 14 days", "setting": "in vivo", "value": 140, "unit": "mg/kg"},
      {"measurement": "Death rate", "setting": "[3]; SD rats, single oral dose, 74 at 5.0 g/kg, BBR at 0.14 g/kg, 10 rats per group, 14 days observation", "value": "0/10"},
      {"measurement": "death of rats in pre-experiment of acute toxicity", "setting": "[3]; pre-experiment, compound 74 at 5 g/kg (highest dose), benzbromarone at 0.14 g/kg", "value": "no death of rats was found"}
    ]}
  ]
}
